pIC50: −log10 of the molar value. “And” between values parts separate entries of the source, which are not always exact repeats. Equal entries are not always repeated.
Experiments:
[1] = system: blood-perfused sino-atrial preparation; experiment: Determination of sinus rate on blood-perfused sino-atrial preparation; set-up: species or system dog; conditions: vs sinus rate prior to injection; for activation at 0.003 mg: dose 3.0 ug; for activation at 0.01 mg: dose 10.0 ug; for activation at 0.03 mg: dose 30.0 ug; for activation at 0.0001 mg: dose 0.1 ug; for change of sinus rate(%): listed as 8-methyl-6-(4-met-hylimidazol-1-)-( 4H)-3,1-benzothia-zin-2-one
Procedure: Mongrel dogs of either sex weighing 7-12kg were anesthetized with sodium pentoba rbital(30mg/kg i.v.). Heparin of 1000 unit/kg was administered to each animal intravenously and the animals were exsanguinated. Heart was removed and put in Krebs-Henselelt solution. Catheter was inserted into blood vessel between right coronary artery and SA nodes. Right artrium and catheter were together removed. Blood supplied from carotid artery of donor dog of either sex weighing 15-25kg, was supplied to blood vessel cather from right coronary artery and SA node under constant blood pressure of 100mmHg by use of Peristaltic pump. The resting tension of right atrial muscle was made to 2g. The sinus rate triggered by spontaneous contraction of atrial muscle was determined on Narco physiograph(Narcotrace 4). Detailed method was reported by S. Chiba, et al. in Japanese Pharmacology 25, 433-439(1975). Doses of test compounds were injected into flowing blood in gum tube connected to the near part of the catheter inserted into right coronary artery. The effects on sinus rate were shown as percent compared with the sinus rate prior to the injection of the test compounds.

[2] = system: blood perfused papillary muscle preparation; experiment: Determination of contractile power on blood perfused papillary muscle preparation; set-up: species or system dog; conditions: for ED 30: dose giving 30% increase of developed tension, least-square method
Procedure: Dogs of either sex weighing 7-12kg were anesthetized with sodium pentobarbital (30mg/kg,i.v.). Heparin of 1000 unit/kg was administered to each animal intravenously. The animals were exsanguinated and heart was removed. The preparation was perfused through the cannulated anterior septal artery(ASA) with arterial blood from a donor dog at constant pressure of about 100 mmHg. Donor dogs were anesthetized with sodium pentobarbital (30mg/kg, i.v.). Heparin of 1000 units/kg was administered intravenously. The papillary muscle was stimulated with rectangular pulses of 5- ms duration and about 1.5 times the threshold voltage at a rate of 120 stimuli/min through bipolar electrodes.Resting tension was made to 2 g.The developed tension of papillary muscle was determined by Isometric tresducer.Detailed method was reported by Matsumoto in Am. J. Physiol. 218, 1459-1463 (1970). Test compound at the doses of 10-30ul was injected in flowing blood in the gum tube connected to catheter. The inotropic effect of the test compounds was shown by change percent of developed tension compared with that prior to the administration of the test compounds.ED₃₀ value was determined by least-square method and the results were shown in the Table 1.

[3] = system: cyclic AMP phosphodiesterase; experiment: Effect on cyclic AMP phosphodiesterase isolated from dog's heart; type: biochemical; conditions: substrate 1.0 uM; for Inhibitory effect on PDE activity: values fall with concentration
Procedure: Dogs weighing 10 kg were anesthetized with sodium pentobarbital and heparin was administered intravenously. Heart was removed. Two to four grams of left ventricular muscle was obtained and the tissue was rinsed in ice-cold salin. Left ventricular muscle was homogenized in10 volumes of homogenzing buffer(Tris-HCl, pH 7.8). Homogenate was then centrifuged at 100,000 X g for 40 minutes, after which the supernatent was removed. The pellet was resuspended in homogenizing buffer, centrifuged as before and the supernatent obtained as discarded. The pellet was resuspended in 10 volumes of homogenizing buffer containing Triton X-100 and Brij 30, and incubated overnight at 4°C. The detergent-extracted proteins were then separated by centrifugation at 100,000 X g for 40 monutes. The detergent-extracted protein was dialyzed against 70mM sodium acetate /5mM 2-mercaptoethanol(pH 6.5) for 5 hours. The dialyzed extract was applied to a DEAE-cellulose column and eluted using a 70-1000 mM sodium acetate gradient. Appropriate fractions were pooled and concentrated using Amicon ultrafiltration cell. Following concentration, the protein was diluted with ethylene glycol and stored at -20°C.
Phosphodiesterase activity was measured in a reaction medium (40mM Tris-HCl, pH 8.0). The concentration of substrate was 1.0 uM. The IC 50 values( concentration which produced 50% inhibition of substrate hydrolysis) for the various compounds examined were determined from concentration-response curves. Detailed method of this experiment was reported in J.Mol.Cell Cardiol. 19, 1025-1036 (1987).

[4] = Acute toxicity test in ICR mouse, intravenous; conditions: in vivo
Procedure: Acute toxicity test of 6-(4-methylimidazol-1-yl)-(4H)-3,1-benzothiazin-2-one was conducted in ICR mouse. The test compound was dissolved in a mixed solvent of saline and DMF (2:1) and was administered intraveneously to five mice at a dose of 30mg/kg body weight. […] Accordingly, LD₅₀ of the cmpound is 30mg/kg or more.

[5] = Acute toxicity test in mice, oral; conditions: mouse, in vivo
Procedure: Acute toxicity test of 6-(4-methylimidazol-1-yl)-(4H)-3,1-benzothiazine-2-thione was conducted in BALB/C mice. The test compound was suspended in 5% arabic gum solution and administered orally to five mice at a dose of 200 mg/kg body weight by gastric tubing. […] Accordingly, LD₅₀ of the compound is 200mg/kg or more.

[6] = Acute toxicity test in rats, oral; conditions: rat, in vivo
Procedure: Acute toxicity test of 6-(4-methylimidazol-1-yl)-(4H)-3,1-benzoxazin-2-one was conducted in Spraque-Dawley rats. The test compound was suspended in 5% arabic gum and was administered orally to six rats at a dose of 300mg/kg body weight.
Accordingly, LD 50 of the compound is 300 mg/kg or more.

[7] = Canis lupus familiaris, dose 1.0 ug, read-out: change of sinus rate(%)
[8] = Canis lupus familiaris, read-out: change of sinus rate(%)
[9] = at the ED 30 dose (30% by definition)

Row | Compound | activation at 0.001 mg [1, 7] [%] | activation at 0.003 mg [1, 8] [%] | activation at 0.01 mg [1, 8] [%] | activation at 0.03 mg [1, 8] [%] | ED 30 [2] | change of contractivity(%) [2, 9] [%] | also measured
1 | O=C1Nc2ccc(-n3ccnc3)cc2CO1 [6-(imidazol-1-yl)-(4H)-3,1-benzoxazin-2-one] | 0 | 0.84 | 2.52 | 6.67 | ED 30 > 1000 ug | – | Inhibitory effect on PDE activity ([3]; test compound 0.1 uM): 98.4; Inhibitory effect on PDE activity ([3]; test compound 1 uM): 74.5; Inhibitory effect on PDE activity ([3]; test compound 10 uM): 52.2; Inhibitory effect on PDE activity ([3]; test compound 100 uM): 28.8
2 | Cc1cn(-c2ccc3c(c2)COC(=O)N3)c(C)n1 [6-(2,4-dimethylimidzol-1-yl)-(4H)-3,1-benzoxazin-2-one] | 0 | 0 | 0 | 1.67 | ED 30 : 81.89 ug | – | –
3 | Cc1cn(-c2ccc3c(c2)CSC(=O)N3)cn1 [6-(4-methylimidazol-1-yl)-(4H)-3,1-benzothiazin-2-one] | – | 2.3 | – | 5.6 | – | 30 | change of contractivity(%) ([2]; dose 1.0 ug injected into perfusing blood, developed tension vs before administration): 0.0%; change of contractivity(%) ([2]; dose 3.0 ug injected into perfusing blood, developed tension vs before administration): 7.2% and 1.5%; change of contractivity(%) ([2]; dose 10.0 ug injected into perfusing blood, developed tension vs before administration): 20.5% and 11.5%; change of contractivity(%) ([2]; dose 30.0 ug injected into perfusing blood, developed tension vs before administration): 30.7% and 23.3%; LD50 [4]: ≥ 30 mg/kg
4 | Cc1cn(-c2cc(C)c3c(c2)CSC(=O)N3)cn1 [8-methyl-6-(4-methylimidazol-1-yl)-(4H)-3,1-benzothiazin-2-one] | – | 3.3 | – | – | ED 30 = 5.0 ug | 30.0 | activation at 0.0001 mg [1, 8]: 1.7%; change of sinus rate(%) ([1]; dose 0.3 ug): 4.8%; change of sinus rate(%) ([1]; dose 1.0 ug): 8.3%; ED 30 ([2]; listed as 8-methyl-6-(4-met-hylimidazol-1-)-( 4H)-3,1-benzothia-zin-2-one): ED 30 = 0.6 ug
5 | O=C1Nc2ccc(-n3ccnc3)cc2CS1 [6-(imidazol-1-yl)-(4H)-3,1-benzothiazin-2-one] | – | – | – | – | – | 30 | –
6 | Cc1cn(-c2ccc3c(c2)CSC(=S)N3)cn1 [6-(4-methylimidazol-1-yl)-(4H)-3,1-benzothiazine-2-thione] | – | – | – | – | – | – | LD50 [5]: ≥ 200 mg/kg
7 | Cc1cn(-c2cc(C)c3c(c2)COC(=O)N3)cn1 [8-methyl-6-(4-methylimidazol-1-yl)-(4H)-3,1-benzoxazin-2-one] | 6.6 | 5.8 | – | – | ED 30 = 1.2 ug | 30.0 | activation at 0.0001 mg [1, 8]: 0.8%; activation at 0.0003 mg ([1]; Canis lupus familiaris, dose 0.3 ug, read-out: change of sinus rate(%)): 1.7%
8 | O=C1Nc2ccc(-n3cnc4ccccc43)cc2CO1 [6-(benzimidazol-1-yl)-(4H)-benzoxazin-2-one] | 0 | 0 | 0.3 | 0.75 | ED 30 > 1000 ug | – | Inhibitory effect on PDE activity ([3]; test compound 0.1 uM, listed as 6-(benzimidazol-1-yl)-(4H)-3,1-benzoxazin-2-one): 95.5; Inhibitory effect on PDE activity ([3]; test compound 1 uM, listed as 6-(benzimidazol-1-yl)-(4H)-3,1-benzoxazin-2-one): 90.4; Inhibitory effect on PDE activity ([3]; test compound 10 uM, listed as 6-(benzimidazol-1-yl)-(4H)-3,1-benzoxazin-2-one): 72.3; Inhibitory effect on PDE activity ([3]; test compound 100 uM, listed as 6-(benzimidazol-1-yl)-(4H)-3,1-benzoxazin-2-one): 49.5
9 | Cc1nccn1-c1ccc2c(c1)COC(=O)N2 [6-(2-methylimidazol-1-yl)-(4H)-3,1-benzoxazine-2-one] | 0 | 0 | 0.86 | 3.42 | ED 30 > 1000 ug | – | –
10 | CCc1nc(C)cn1-c1ccc2c(c1)COC(=O)N2 [6-(2-ethyl-4-methylimidazol-1-yl)-(4H)-3,1-benzoxazin-2-one] | 0 | 0 | 0.83 | 1.65 | ED 30 : 269 ug | – | –
11 | Cc1cn(-c2ccc3c(c2)COC(=O)N3)cn1 [6-(4-methylimidazol-1-yl)(4H)-3,1-benzoxazin-2-one] | 0 | 2.52 | 5.04 | – | ED 30 : 10.4 ug | – | pIC50 ([3]; 50% inhibition of substrate hydrolysis): 4.89; Inhibitory effect on PDE activity ([3]; test compound 0.1 uM): 95.1; Inhibitory effect on PDE activity ([3]; test compound 1 uM): 77.5; Inhibitory effect on PDE activity ([3]; test compound 10 uM): 51.7; Inhibitory effect on PDE activity ([3]; test compound 100 uM): 35.8; LD50 [6]: ≥ 300 mg/kg
